Measurements reported in PMC4057235, “Development and Evaluation of Small Peptidomimetic Ligands to Protease-Activated Receptor-2 (PAR2) through the Use of Lipid Tethering” (PLoS ONE, 2014).

Tests used:
[1] = target: T1, MrgprC11 (Mus musculus, UniProt Q8CIP3); assay: Ca2+ response in MrgprC11 transfected CHO cells; format: cell-based
T1 construct: An MrgprC11 cDNA in pcDNA3.1 vector was transfected into CHO cells; expressed in transfected cells; host or cells: CHO cells, transient transfection with Lipofectamine 2000
T1 sequence (Q8CIP3 1-322): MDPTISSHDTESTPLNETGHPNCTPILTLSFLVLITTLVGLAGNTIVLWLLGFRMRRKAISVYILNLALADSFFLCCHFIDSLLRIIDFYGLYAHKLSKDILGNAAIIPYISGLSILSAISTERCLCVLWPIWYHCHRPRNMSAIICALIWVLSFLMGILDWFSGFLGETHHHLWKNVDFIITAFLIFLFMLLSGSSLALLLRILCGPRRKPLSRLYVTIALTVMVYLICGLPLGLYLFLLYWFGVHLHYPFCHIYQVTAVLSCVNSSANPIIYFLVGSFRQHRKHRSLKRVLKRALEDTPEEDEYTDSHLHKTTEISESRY
Description: CHO cells were cultured in DMEM supplemented with 10% FBS and 1% penicillin and streptomycin at 37°C in a 5% CO2 atmosphere. One day before transfection, CHO cells were plated in a 60 mm cell culture dish at a concentration of 1×10^5 cells/cm^2 and grown without antibiotics. An MrgprC11 cDNA in pcDNA3.1 vector was transfected into CHO cells using Lipofectamine™ 2000 (Invitrogen) prior to transfer to coverslips for experiments. Coverslips were coated with 0.1 mg/ml poly-D-lysine (from 2 mg/ml stock) and incubated for 1 hr at room temperature, after which the coating solution was removed and the coverslips were washed twice with double distilled water. CHO cells were seeded on coverslips at a concentration of 1×10^5 cells/cm^2 6 hr after transfection. Transfected cells were incubated for 24 hr prior to Ca^2+ imaging.
(§1) 16HBE14o- cells or CHO cells were loaded with fura 2-acetomethoxyl ester (CalBiochem or Molecular Probes) for 30 min at room temperature. Cells were washed with HBSS and allowed to sit for at least 20 min prior to digital imaging. For activation and desensitization assay experiments using 16HBE14o- cells, [Ca^2+]i was measured as previously described. Experiments consisted of 20 sec of recording of cells in HBSS to determine resting [Ca^2+]i, followed by a 10 sec wash to introduce ligand and up to 10 min of recording for ligand washes required for desensitization experiments. Briefly, fura-2 fluorescence was observed on an Olympus IX70 microscope with a 40X oil immersion objective after alternating excitation between 340 and 380 nm by a 75 W Xenon lamp linked to a Delta Ram V illuminator (PTI) and a gel optic line. Intracellular Ca^2+ concentration ([Ca^2+]i) for each individual cell in the field of view was calculated by ratiometric analysis of fura-2 fluorescence using equations originally published in [31]. Individual ratios were calculated every sec throughout the experiments. [Ca^2+]i traces over time are averaged [Ca^2+]i of all cells within a field of view (80–120) and are representative of at least 3 experiments. Cells were considered activated by the ligand if their resting [Ca^2+]i was increased above a 200 nM threshold, a 2–4 fold increase above typical resting values. Percent activation graphs are determined from 3–6 experiments for each ligand concentration. Time to threshold in individual cells represent between 200–400 cells from at least 3 experiments at each ligand concentration. Ca^2+ imaging of CHO cells was similar; each ligand concentration tested included at least 3 experiments and a minimum of 200 cells analyzed during each experiment.

[2] = target: T2, PAR2 (Homo sapiens, UniProt P55085); parameters: method as in PMID 21467041; conditions: 16HBE14o- cells; read-out: RTCA EC50; cited from earlier work
T2 construct: 16HBE14o- cells on E-plates in growth medium; endogenous in cells; host or cells: 16HBE14o- cells
T2 sequence (P55085 26-397): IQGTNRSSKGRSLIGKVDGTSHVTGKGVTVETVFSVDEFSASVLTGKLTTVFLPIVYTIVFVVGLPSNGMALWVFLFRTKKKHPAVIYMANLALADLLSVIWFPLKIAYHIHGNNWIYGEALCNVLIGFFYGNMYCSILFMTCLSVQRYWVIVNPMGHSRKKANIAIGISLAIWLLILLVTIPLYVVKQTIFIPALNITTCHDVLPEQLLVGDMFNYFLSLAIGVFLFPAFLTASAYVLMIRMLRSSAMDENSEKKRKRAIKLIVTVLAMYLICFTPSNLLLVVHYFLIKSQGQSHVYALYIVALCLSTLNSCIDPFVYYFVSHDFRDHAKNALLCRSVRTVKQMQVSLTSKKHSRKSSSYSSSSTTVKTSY

[3] = target: T2, PAR2; assay: Ca2+ desensitization assay in 16HBE14o- cells with 2at-LIGRL-NH2; format: cell-based; conditions: compound at its activating concentration, ATP 5 µM
Description: as §1, with “[Ca^2+]i traces over time are averaged [Ca^2+]i of all cells within a field of view (80–120) and are representative of at least 3 experiments. Cells were considered activated by the ligand if their resting [Ca^2+]i was increased above a 200 nM threshold, a 2–4 fold increase above typical resting values.” left out, “Time to threshold in individual cells represent between 200–400 cells from at least 3 experiments at each ligand concentration.” left out, “experiment. […]” for “experiment.”

[4] = parameters: method as in PMID 20873792; conditions: at high concentrations (100 µM); cited from earlier work
[5] = target: T1, MrgprC11; parameters: method as in PMID 21775281; conditions: cited from earlier work

**Q.** Which “Ca2+ response (% of cells)” value ([1]; 1 µM) does the source give for 2at-LIGRL-NH2 [reference compound] here?
**A.** Its value is “no response”.

**Q.** And the “Ca2+ response (% of cells)” value ([1]; 10 µM)?
**A.** The value was 10%.

**Q.** And the EC50 [2]?
**A.** The EC50 was 310 nM.

**Q.** And the “Ca2+ response after PAR2 desensitization with 50 µM 2at-LIGRL-NH2” value [3]?
**A.** Its value is “did not result in an increase of [Ca^2+]i”.

**Q.** Which EC50 [2] does the source give for 6-aminonicotinyl-LIGRL-NH2 here?
**A.** Its EC50 is 430 nM.

**Q.** With `Nc1ncnc2c1ncn2[C@@H]1O[C@H](COP(=O)(O)OP(=O)(O)OP(=O)(O)O)[C@@H](O)[C@H]1O` [ATP] as the molecule, how does the “Ca2+ response after PAR2 desensitization with 50 µM 2at-LIGRL-NH2” value [3] read?
**A.** Its value is “remained an effective agonist”.

**Q.** Which solubility [4] does the source give for `CCC(C)C(NC(=O)C(CC1CCCCC1)NC(=O)c1ccno1)C(N)=O` (stereo not drawn) [Compound 5io-Cha-I-NH2] here?
**A.** The solubility was “lack of solubility”.

**Q.** For SLIGR-NH2, which MrgprC11 signaling [5] is on record?
**A.** Its MrgprC11 signaling is “lost MrgprC11 signaling capacity”.

**Q.** For SLIGRL-NH2 (H-SLIGRL-NH2), which EC50 ([5]; read-out: MrgprC11 activation EC50) is on record?
**A.** The EC50 was 10 µM.
